# PubChem BioAssay AID1963436 (Molecular Pharmacology Branch, DTP, NCI, 2024)
# Values joined by “and” are separate entries in the source; they are usually repeats but may differ in a detail not shown here. Identical values can stand only once.
# Test system: OVCAR-5 complex spheroid (HUVEC/MSC), viability % T/C
# Experiment: Anticancer human tumor OVCAR-5 cell line growth inhibition [Asc];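 further: spheroids exposed to agents for 7 days before readout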;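 on viability, T/C: 100% = DMSO vehicle-treated wells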
# Settings: for viability, T/C: stronger effect = lower value
# Method: Multicellular complex tumor spheroid response to apoptosis pathway targeting inhibitors Alrizomadlin, Pelcitoclax, and Dasminapant in combination with a variety of drugs and investigational agents in selected tumor cell lines
# The MDM2 inhibitor alrizomadlin, the Bcl-2/Bcl-xL inhibitor pelcitoclax, and the IAPs inhibitor dasminapant were evaluated both individually and in combination with standard of care and investigational anticancer small molecules within a complex spheroid model of solid tumors. . Complex spheroids include a stromal component modeled by human endothelial cells (HUVEC) and fibroblasts modeled by human mesenchymal stem cells (MSCs). The concentration ranges selected for each drug and investigational agent were based upon clinically achievable concentrations if the clinical Cmax of the agent was known.
# Compounds. The drugs and investigational agents: alrizomadlin (APG-115; NSC831270), pelcitoclax (APG-1252; NSC835773), dasminapant (APG-1387;NSC834197), TAK-243 (NSC785004), copanlisib (NSC809693), olaparib (NSC753686), talazoparib (NSC767125), cobimetinib (NSC 768068), eltanexor (KPT-8602, NSC 794443), abemaciclib (NSC 768073), sotorasib (NSC818433), adagrasib (NSC 831453), MRTX-1133 (NSC 836407), Iadademestat (ORY1001, NSC 806812), and RMC-4630 (NSC839698), were obtained from the NCI Developmental Therapeutics Program Chemical Repository. The FDA-approved anticancer drug set is available from the Developmental Therapeutics Program at https://dtp.cancer.gov/organization/dscb/obtaining/available plates.htm. […] The stock solutions were prepared in dimethyl sulfoxide (DMSO, Sigma-Aldrich, St. Louis, MO, cat. D2650) at 800-fold the tested concentration and stored at -70 degrees C prior to their use. All drugs and investigational agents were tested over a range starting from a high concentration at or near the clinical Cmax and decreasing in half-log increments. If the clinical Cmax for an agent had not been determined, the highest concentration tested was 10 microM.
# The patient-derived cancer (PDC) cell lines include five colon adenocarcinomas: 186277-243-T-J2-PDC, 616215-338-R-J1-PDC, 439559-082-T-J2-PDC, 463943-066-T-J2-PDC, and 519858-162-T-J1-PDC; three pancreatic carcinomas: 323965-272-R-J2-PDC, 521955-158-R6-J3-PDC, and 521955-158-R2-J5-PDC; two uterine sarcomas: 327498-152-R-J2-PDC and 993429-296-R-J1-PDC; two rhabdomyosarcomas: 755483-174-R-J1-PDC and 772245-204-R-J1-PDC; two soft tissue sarcomas: 126254-015-R-J1-PDC and 494315-158-R-J1-PDC; two malignant fibrous histiocytomas: 317291-083-R-J1-PDC and 596521-263-R-J1-PDC; two breast carcinomas: 171881-019-R-J1-PDC and 885512-296-R-J2-PDC; and one ovarian carcinoma: 6556581-035-R-J-PDC were obtained from the NCI PDMR, (https://pdmr.cancer.gov). The established cell lines HSSY-2 synovial sarcoma (RRID:CVCL 8719), SYO-1 synovial sarcoma (RRID:CVCL_7146), MPNST malignant peripheral neural sheath tumor were obtained from the Sloan Kettering Institute. The following established cell lines were purchased from the American Type Culture Collection (ATCC, Manassas, VA), Sor the received from the NCI repository:, PANC-1 pancreatic carcinoma (CRL-1469, RRID:CVCL_0480), OVCAR-5 ovarian carcinoma (RRID:CVCL_1628), OVCAR-8 ovarian carcinoma (RRID:CVCL_1629), , MCF-7 breast carcinoma (CRL-12584, RRID:CVCL_0031), MDA-MB-231 breast carcinoma (CRL-12532, RRID:CVCL_0062), NCI-H1876 small cell lung carcinoma (CRL-5902, RRID:CVCL_1503), NCI-H510A small cell lung carcinoma (HTB-184, RRID:CVCL_1565), NCI-H1417 (CRL-5869, RRID:CVCL_1469), and NCI-H196 small cell lung carcinoma (CRL-5823, RRID:CVCL_1509). Dr. Peter Houghton (Greehey Children's Cancer Research Institute, University of Texas Health Science Center, San Antonio, TX) provided Rh-18 rhabdomyosarcoma (RRID:CVCL_1659). Pooled donor human umbilical vein endothelial cells (HUVEC, Lonza, cat. CC-2519) and human mesenchymal stem cells (hMSC, Lonza, cat. PT-2501) were purchased from Lonza (Walkersville, MD).
# Cell Culture. […]
# [1] = curve of first compound, second compound 0.1 µM
# [2] = curve of first compound, second compound 0.316 µM
# [3] = curve of first compound, second compound 1 µM
# [4] = second compound 0.1 µM, first compound 0.00316 µM
# [5] = second compound 0.1 µM, first compound 0.01 µM
# [6] = second compound 0.1 µM, first compound 0.0316 µM
# [7] = second compound 0.1 µM, first compound 0.1 µM
# [8] = second compound 0.1 µM, first compound 0.316 µM
# [9] = second compound 0.1 µM, first compound 1 µM
# [10] = second compound 0.316 µM, first compound 0.00316 µM
# [11] = second compound 0.316 µM, first compound 0.01 µM
# [12] = second compound 0.316 µM, first compound 0.0316 µM
# [13] = second compound 0.316 µM, first compound 0.1 µM
# [14] = second compound 0.316 µM, first compound 0.316 µM
# [15] = second compound 0.316 µM, first compound 1 µM
# [16] = second compound 1 µM, first compound 0.00316 µM
# [17] = second compound 1 µM, first compound 0.01 µM
# [18] = second compound 1 µM, first compound 0.0316 µM
# [19] = second compound 1 µM, first compound 0.1 µM
# [20] = second compound 1 µM, first compound 0.316 µM
# [21] = second compound 1 µM, first compound 1 µM
SMILES,IC50 [1] [nM],IC50 [2] [nM],IC50 [3] [nM],"viability, T/C [4] [%]","viability, T/C [5] [%]","viability, T/C [6] [%]","viability, T/C [7] [%]","viability, T/C [8] [%]","viability, T/C [9] [%]","viability, T/C [10] [%]","viability, T/C [11] [%]","viability, T/C [12] [%]","viability, T/C [13] [%]","viability, T/C [14] [%]","viability, T/C [15] [%]","viability, T/C [16] [%]","viability, T/C [17] [%]","viability, T/C [18] [%]","viability, T/C [19] [%]","viability, T/C [20] [%]",other results
O=C(c1ccc(F)c(F)c1Nc1ccc(I)cc1F)N1CC(O)([C@@H]2CCCCN2)C1 + CNC(C)C(=O)NC1CN(S(=O)(=O)c2cccc(S(=O)(=O)N3CCC4CCC(C(=O)NC(c5ccccc5)c5ccccc5)N4C(=O)C(NC(=O)C(C)NC)C3)c2)CCC2CCC(C(=O)NC(c3ccccc3)c3ccccc3)N2C1=O,76.2,49.2,72.6,80,79.1,62.5,46.5,34.2,30.3,77.7,67.3,54.5,42.8,32.8,26.8,79.8,76.9,59.4,47.7,29.7,"IC50 (curve of first compound, second compound 0.01 µM): 110 nM; IC50 (curve of first compound, second compound 0.0316 µM): 108 nM; viability, T/C (second compound 0.01 µM, first compound 0.00316 µM): 92.2%; viability, T/C (second compound 0.01 µM, first compound 0.01 µM): 80.4%; viability, T/C (second compound 0.01 µM, first compound 0.0316 µM): 62.6%; viability, T/C (second compound 0.01 µM, first compound 0.1 µM): 51.2%; viability, T/C (second compound 0.01 µM, first compound 0.316 µM): 40.9%; viability, T/C (second compound 0.01 µM, first compound 1 µM): 31.8%; viability, T/C (second compound 0.0316 µM, first compound 0.00316 µM): 83.6%; viability, T/C (second compound 0.0316 µM, first compound 0.01 µM): 78.1%; viability, T/C (second compound 0.0316 µM, first compound 0.0316 µM): 64.5%; viability, T/C (second compound 0.0316 µM, first compound 0.1 µM): 51.4%; viability, T/C (second compound 0.0316 µM, first compound 0.316 µM): 36.7%; viability, T/C (second compound 0.0316 µM, first compound 1 µM): 25.5%; viability, T/C [21]: 24.1%"
Cn1ncnc1[C@H]1c2n[nH]c(=O)c3cc(F)cc(c23)N[C@@H]1c1ccc(F)cc1,,,,,,,,,,,,,,,,,,,,,"viability, T/C (compound 0.000316 µM): 104% and 94.5% and 106%; viability, T/C (compound 0.001 µM): 108% (2×) and 101%; viability, T/C (compound 0.00316 µM): 99.5% and 95.4% and 93.1%; viability, T/C (compound 0.01 µM): 90.6% and 93.5% and 96.7%; viability, T/C (compound 0.0316 µM): 92.8% and 92.5% and 90.8%; viability, T/C (compound 0.1 µM): 91.8% and 88.3% and 93.8%; IC50 (curve of compound): > 100 nM"
CCN1CCN(Cc2ccc(Nc3ncc(F)c(-c4cc(F)c5nc(C)n(C(C)C)c5c4)n3)nc2)CC1 + Cc1c(S(C)(=O)=O)c(-c2cc(F)cc(N3CCN(c4ccc(NS(=O)(=O)c5ccc(NC(CCN6CCC(C(=O)OCCCP(=O)(O)O)CC6)CSc6ccccc6)c(S(=O)(=O)C(F)(F)F)c5)cc4)CC3)c2)c(-c2ccc(Cl)cc2)n1C(C)C,> 1000,> 1000,> 1000,94.7,83.5,66,61.5,69.6,56.1,79.4,74.1,68.6,56.1,61.8,57,80.1,80.4,63.5,55,58.3,"IC50 (curve of first compound, second compound 3.16 µM): > 1000 nM; IC50 (curve of first compound, second compound 10 µM): > 1000 nM; viability, T/C [21]: 50.8%; viability, T/C (second compound 3.16 µM, first compound 0.00316 µM): 77%; viability, T/C (second compound 3.16 µM, first compound 0.01 µM): 72.9%; viability, T/C (second compound 3.16 µM, first compound 0.0316 µM): 63.9%; viability, T/C (second compound 3.16 µM, first compound 0.1 µM): 48.6%; viability, T/C (second compound 3.16 µM, first compound 0.316 µM): 58.4%; viability, T/C (second compound 3.16 µM, first compound 1 µM): 47.9%; viability, T/C (second compound 10 µM, first compound 0.00316 µM): 107%; viability, T/C (second compound 10 µM, first compound 0.01 µM): 97.7%; viability, T/C (second compound 10 µM, first compound 0.0316 µM): 81.5%; viability, T/C (second compound 10 µM, first compound 0.1 µM): 47%; viability, T/C (second compound 10 µM, first compound 0.316 µM): 54.3%; viability, T/C (second compound 10 µM, first compound 1 µM): 49.1%"
